In PubChem BioAssay AID270 (DTP/NCI, 2004) one finds T/C data, which are given here for 20 compounds.

This assay has as its system BDF1 mice, s.c. Lewis lung carcinoma, T/C %. The experiment in a line: NCI In Vivo Anticancer Drug Screen. Data for tumor model Lewis Lung Carcinoma (subcutaneous) in B6D2F1 (BDF1) mice. The protocol: The antitumor activity of compounds was measured in mice bearing transplantable tumors. Survival or tumor size were measured and the results are expressed as the measurement made in the treated group (T) divided by the measurement made in the vehicle treated control group (C). The tumor model used in this assay is Lewis Lung Carcinoma (subcutaneous) in B6D2F1 (BDF1) mice

Setting [1] is: endpoint: median survival time, dose: 50.0 mg/kg/injection, schedule: Q01DX009 (ip), vehicle: saline, higher = longer survival.
The mark [2] stands for this setting: endpoint: median survival time, dose: 100.0 mg/kg/injection, schedule: Q01DX009 (ip), vehicle: saline, higher = longer survival.
[3] abbreviates: endpoint: mean tumor weight, dose: 222.0 mg/kg/injection, schedule: Q01DX011 (ip), vehicle: other, higher = larger tumour.
[4] abbreviates: endpoint: mean tumor weight, dose: 333.0 mg/kg/injection, schedule: Q01DX011 (ip), vehicle: other, higher = larger tumour.

Structures are written as SMILES. Several values for one entry are separate records, joined by “and”; a condition that tells them apart may be missing. Equal entries are not always repeated. Results filed as inconclusive are left out.

For the compound `O=C1N[C@@H]([C@H]2CC[C@H](Cl)CN2)C(=O)N[C@H]1[C@H]1CC[C@H](Cl)CN1`, the T/C (endpoint: median survival time, dose: 2.7 mg/kg/injection, schedule: Q01DX009 (ip), vehicle: saline, higher = longer survival) was 102 % of control; the T/C (endpoint: median survival time, dose: 4.4 mg/kg/injection, schedule: Q04DX003 (ip), vehicle: saline, higher = longer survival) is 99 % of control; the T/C (endpoint: median survival time, dose: 6.5 mg/kg/injection, schedule: Q04DX003 (ip), vehicle: saline, higher = longer survival) was 105 % of control; the T/C (endpoint: median survival time, dose: 9.0 mg/kg/injection, schedule: Q01DX001 (ip), vehicle: saline, higher = longer survival) was 91 % of control; the T/C (endpoint: median survival time, dose: 13.0 mg/kg/injection, schedule: Q01DX001 (ip), vehicle: saline, higher = longer survival) was 101 % of control; the T/C (endpoint: median survival time, dose: 20.0 mg/kg/injection, schedule: Q01DX001 (ip), vehicle: saline, higher = longer survival) was 100 % of control.
`O=[N+]([O-])c1cccc([N+](=O)[O-])c1Cl`: the T/C is 116 % of control (endpoint: mean tumor weight, dose: 37.0 mg/kg/injection, schedule: Q01DX011 (ip), vehicle: other, higher = larger tumour) and 89 % of control (endpoint: mean tumor weight, dose: 55.0 mg/kg/injection, schedule: Q01DX011 (ip), vehicle: other, higher = larger tumour).
For the compound `NC(=S)N/N=C/c1ccc(O)cn1`, the T/C (endpoint: median survival time, dose: 18.8 mg/kg/injection, schedule: Q01DX009 (ip), vehicle: saline with Tween-80, higher = longer survival) was 94 % of control; the T/C (endpoint: median survival time, dose: 37.5 mg/kg/injection, schedule: Q01DX009 (ip), vehicle: saline with Tween-80, higher = longer survival) is 106 % of control and 119 % of control; the T/C (endpoint: median survival time, dose: 75.0 mg/kg/injection, schedule: Q01DX009 (ip), vehicle: saline with Tween-80, higher = longer survival) was 97 % of control; the T/C (endpoint: median survival time, dose: 150.0 mg/kg/injection, schedule: Q01DX009 (ip), vehicle: saline with Tween-80, higher = longer survival) was 121 % of control.
`CO/[N+]([O-])=C\C(=O)N/C=C/C(=O)O`: the T/C is 80 % of control (endpoint: mean tumor weight, dose: 22.0 mg/kg/injection, schedule: Q01DX011 (ip), vehicle: carboxymethylcellulose (CMC), higher = larger tumour) and 57 % of control (endpoint: mean tumor weight, dose: 33.0 mg/kg/injection, schedule: Q01DX011 (ip), vehicle: carboxymethylcellulose (CMC), higher = larger tumour).
Take `O=NN(CCF)C(=O)NC1CCCCC1`: the T/C is 101 % of control (2×) and 119 % of control (endpoint: median survival time, dose: 5.0 mg/kg/injection, schedule: Q01DX001 (ip), vehicle: Klucel (hydroxypropylcellulose) (HPC), higher = longer survival); 96 % of control (endpoint: median survival time, dose: 5.1 mg/kg/injection, schedule: Q01DX001 (ip), vehicle: other, higher = longer survival); 90 % of control and 116 % of control and 119 % of control (endpoint: median survival time, dose: 10.0 mg/kg/injection, schedule: Q01DX001 (ip), vehicle: Klucel (hydroxypropylcellulose) (HPC), higher = longer survival); 105 % of control (endpoint: median survival time, dose: 10.2 mg/kg/injection, schedule: Q01DX001 (ip), vehicle: other, higher = longer survival); 101 % of control and 109 % of control and 119 % of control (endpoint: median survival time, dose: 20.0 mg/kg/injection, schedule: Q01DX001 (ip), vehicle: Klucel (hydroxypropylcellulose) (HPC), higher = longer survival); 121 % of control (endpoint: median survival time, dose: 20.4 mg/kg/injection, schedule: Q01DX001 (ip), vehicle: other, higher = longer survival). The T/C (endpoint: median survival time, dose: 40.0 mg/kg/injection, schedule: Q01DX001 (ip), vehicle: Klucel (hydroxypropylcellulose) (HPC), higher = longer survival) was 182 % of control.
On to `C=C(C(=O)O)C(=O)O`, for which the T/C was 105 % of control under setting [1]; 105 % of control under setting [2]; 103 % of control (endpoint: median survival time, dose: 200.0 mg/kg/injection, schedule: Q01DX009 (ip), vehicle: saline, higher = longer survival).
Turning to `CCOC(=O)C(CC(C)C)NC(=O)C(Cc1ccc(N(CCCl)CCCl)cc1)NC(C)=O` (stereo not given), the T/C by setting is: (endpoint: median survival time, dose: 1.0 mg/kg/injection, schedule: Q01DX009 (ip), vehicle: saline with Tween-80, higher = longer survival) 88 % of control; (endpoint: median survival time, dose: 2.0 mg/kg/injection, schedule: Q01DX009 (ip), vehicle: saline with Tween-80, higher = longer survival) 95 % of control; (endpoint: median survival time, dose: 4.0 mg/kg/injection, schedule: Q01DX009 (ip), vehicle: saline with Tween-80, higher = longer survival) 111 % of control; (endpoint: median survival time, dose: 8.0 mg/kg/injection, schedule: Q01DX009 (ip), vehicle: saline with Tween-80, higher = longer survival) 108 % of control; (endpoint: median survival time, dose: 16.0 mg/kg/injection, schedule: Q01DX009 (ip), vehicle: saline with Tween-80, higher = longer survival) 116 % of control.
For the compound `O=P(c1ccccc1)(c1ccccc1)P(=O)(c1ccccc1)c1ccccc1`, the T/C was 117 % of control (endpoint: mean tumor weight, dose: 33.0 mg/kg/injection, schedule: Q01DX011 (ip), vehicle: other, higher = larger tumour); 79 % of control (endpoint: mean tumor weight, dose: 66.0 mg/kg/injection, schedule: Q01DX011 (ip), vehicle: other, higher = larger tumour); 61 % of control (endpoint: mean tumor weight, dose: 100.0 mg/kg/injection, schedule: Q01DX011 (ip), vehicle: other, higher = larger tumour); 94 % of control (endpoint: mean tumor weight, dose: 150.0 mg/kg/injection, schedule: Q01DX011 (ip), vehicle: other, higher = larger tumour); 87 % of control (endpoint: mean tumor weight, dose: 200.0 mg/kg/injection, schedule: Q01DX011 (ip), vehicle: methylcellulose (MC), higher = larger tumour); 38 % of control (endpoint: mean tumor weight, dose: 300.0 mg/kg/injection, schedule: Q01DX011 (ip), vehicle: methylcellulose (MC), higher = larger tumour).
As for `CCC[C@H]1CCCCN1`, the T/C (endpoint: mean tumor weight, dose: 25.0 mg/kg/injection, schedule: Q01DX011 (ip), vehicle: saline, higher = larger tumour) was 88 % of control.
In the case of `O=C(/C(=C\c1ccccc1)CN1CCOCC1)c1ccc(Br)cc1`, the T/C is 113 % of control under setting [1] and 105 % of control under setting [2].
Consider `CC(C)(C)C1CCC(NC(=O)N(CCCl)N=O)CC1` (stereo not given), for which the T/C is 118 % of control (endpoint: median survival time, dose: 140.0 mg/kg/injection, schedule: Q01DX001 (ip), vehicle: gum acacia, higher = longer survival) and 121 % of control (endpoint: median survival time, dose: 315.0 mg/kg/injection, schedule: Q01DX001 (ip), vehicle: gum acacia, higher = longer survival).
Consider `CN[C@H]1CCc2cc(OC)c(OC)c(OC)c2-c2ccc(OC)c(=O)cc21`, for which the T/C runs as follows: (endpoint: mean tumor weight, dose: 0.63 mg/kg/injection, schedule: Q01DX011 (ip), vehicle: saline, higher = larger tumour) 59 % of control; (endpoint: mean tumor weight, dose: 1.25 mg/kg/injection, schedule: Q01DX011 (ip), vehicle: saline, higher = larger tumour) 85 % of control; (endpoint: mean tumor weight, dose: 2.5 mg/kg/injection, schedule: Q01DX011 (ip), vehicle: saline, higher = larger tumour) 61 % of control; (endpoint: mean tumor weight, dose: 5.0 mg/kg/injection, schedule: Q01DX011 (ip), vehicle: saline, higher = larger tumour) 58 % of control and 72 % of control; (endpoint: mean tumor weight, dose: 7.0 mg/kg/injection, schedule: Q01DX011 (ip), vehicle: saline, higher = larger tumour) 33 % of control.
`Nc1nc(-c2ccccc2N=NN2CCCC2)nc2ccccc12`: the T/C (endpoint: median survival time, dose: 6.25 mg/kg/injection, schedule: Q01DX009 (ip), vehicle: Klucel (hydroxypropylcellulose) (HPC), higher = longer survival) was 105 % of control; the T/C (endpoint: median survival time, dose: 12.5 mg/kg/injection, schedule: Q01DX009 (ip), vehicle: Klucel (hydroxypropylcellulose) (HPC), higher = longer survival) is 97 % of control; the T/C (endpoint: median survival time, dose: 25.0 mg/kg/injection, schedule: Q01DX009 (ip), vehicle: Klucel (hydroxypropylcellulose) (HPC), higher = longer survival) is 103 % of control.
As to `CCOC(=O)C1=NNC(=O)C1`, the T/C reads like this: under setting [3], 119 % of control; under setting [4], 118 % of control; (endpoint: mean tumor weight, dose: 500.0 mg/kg/injection, schedule: Q01DX011 (ip), vehicle: other, higher = larger tumour) 75 % of control; (endpoint: mean tumor weight, dose: 750.0 mg/kg/injection, schedule: Q01DX011 (ip), vehicle: other, higher = larger tumour) 108 % of control.
As to `Cc1ccc2oc(-c3ccccc3)c(O)c(=O)c2c1`, the T/C (endpoint: mean tumor weight, dose: 18.8 mg/kg/injection, schedule: Q01DX010 (ip), vehicle: saline, higher = larger tumour) was 77 % of control; the T/C (endpoint: mean tumor weight, dose: 37.5 mg/kg/injection, schedule: Q01DX010 (ip), vehicle: saline, higher = larger tumour) was 73 % of control; the T/C (endpoint: mean tumor weight, dose: 75.0 mg/kg/injection, schedule: Q01DX010 (ip), vehicle: saline, higher = larger tumour) is 57 % of control; the T/C (endpoint: mean tumor weight, dose: 150.0 mg/kg/injection, schedule: Q01DX010 (ip), vehicle: saline, higher = larger tumour) was 86 % of control.
In the case of `O=S(=O)(O)O.[NH-]CC1(C[NH-])CCCCC1.[Pt+2]`, for the setting “endpoint: median survival time, dose: 6.0 mg/kg/injection, schedule: Q04DX003 (ip), vehicle: other, higher = longer survival”, the T/C was 100 % of control.
`CCCC(=O)NC1=C(N2CC2)C(=O)C(NC(=O)CCC)=C(N2CC2)C1=O`: the T/C (endpoint: mean tumor weight, dose: 0.8 mg/kg/injection, schedule: Q01DX011 (ip), vehicle: other, higher = larger tumour) is 81 % of control; the T/C (endpoint: mean tumor weight, dose: 1.5 mg/kg/injection, schedule: Q01DX011 (ip), vehicle: other, higher = larger tumour) was 42 % of control; the T/C (endpoint: mean tumor weight, dose: 3.0 mg/kg/injection, schedule: Q01DX011 (ip), vehicle: other, higher = larger tumour) is 28 % of control.
Consider `CC(/C=N/N=C(N)N)=N\N=C(N)N`, for which the T/C is, setting by setting: (endpoint: mean tumor weight, dose: 15.0 mg/kg/injection, schedule: Q01DX011 (ip), vehicle: saline, higher = larger tumour) 119 % of control; (endpoint: mean tumor weight, dose: 30.0 mg/kg/injection, schedule: Q01DX011 (ip), vehicle: saline, higher = larger tumour) 88 % of control; (endpoint: mean tumor weight, dose: 60.0 mg/kg/injection, schedule: Q01DX011 (ip), vehicle: saline, higher = larger tumour) 46 % of control.
For the compound `COc1ccc(-c2c(CC(=O)O)c3cc(OC)ccc3n2Cc2ccc(Cl)cc2)cc1`, the T/C under setting [3] is 164 % of control and the T/C under setting [4] was 151 % of control.
In the case of `CN(C)c1ccc(-c2cc[n+](C)cc2)cc1`, the T/C was 103 % of control (endpoint: median survival time, dose: 0.5 mg/kg/injection, schedule: Q01DX009 (ip), vehicle: saline, higher = longer survival); 114 % of control (endpoint: median survival time, dose: 1.0 mg/kg/injection, schedule: Q01DX009 (ip), vehicle: saline, higher = longer survival); 119 % of control (endpoint: median survival time, dose: 2.0 mg/kg/injection, schedule: Q01DX009 (ip), vehicle: saline, higher = longer survival); 106 % of control (endpoint: median survival time, dose: 3.0 mg/kg/injection, schedule: Q01DX009 (ip), vehicle: saline, higher = longer survival); 103 % of control (endpoint: median survival time, dose: 6.0 mg/kg/injection, schedule: Q01DX009 (ip), vehicle: saline, higher = longer survival).
